Measured values from patent publication US20250195342A1, “DRY COMPOSITIONS AND METHODS FOR FORMING STABLE LIQUID CLEANSING FORMULATIONS” (Conopco, Inc., d/b/a UNILEVER, priority 2022, published 2025).

Description: Silver ion solubility, as referred to herein, is a value derived from a solubility product (Ksp) in water at 25 degrees centigrade, a well known parameter that is reported in numerous sources.

SMILES	Silver Ion Solubility [Ag+]
[Br][Ag] [Silver bromide]	Silver bromide 1 5.3 × 10−^13 7.3 × 10″^7 mol/L
[Cl][Ag] [Silver chloride]	1.3 × 10″^5 mol/L
